Legend:
[1] = system: Bordetella bronchiseptica 16; experiment: MIC, standard agar dilution test; type: cell-based
Excerpt: (§1) The antibacterial activity of the deprotected compounds of this invention is illustrated by the following in vitro and in vivo test data obtained with representative compounds. In Table I, the minimum inhibitory concentration (MIC) for representative compounds against a wide range of gram-positive and gram-negative bacteria is presented. The MIC values were obtained by the standard agar dilution test.

[2] = system: Citrobacter freundii CF17; experiment: MIC, standard agar dilution test; type: cell-based
Excerpt: as §1

[3] = system: Enterobacter aerogenes C32; experiment: MIC, standard agar dilution test; type: cell-based
Excerpt: as §1

[4] = system: Enterobacter aerogenes EB17; experiment: MIC, standard agar dilution test; type: cell-based
Excerpt: as §1

[5] = system: Enterobacter aerogenes X68; experiment: MIC, standard agar dilution test; type: cell-based
Excerpt: as §1

[6] = system: Enterobacter cloacae 265A; experiment: MIC, standard agar dilution test; type: cell-based
Excerpt: as §1

Enterobacter cloacae EB5 = experiment: MIC, standard agar dilution test; type: cell-based
Excerpt: as §1

Escherichia coli EC14 = experiment: MIC, standard agar dilution test; type: cell-based
Excerpt: as §1

Escherichia coli N10 = experiment: MIC, standard agar dilution test; type: cell-based
Excerpt: as §1

Escherichia coli TEM = experiment: MIC, standard agar dilution test; type: cell-based; details: Escherichia coli TEM; agar dilution
Excerpt: as §1

Hemophilus influenzae 76 = experiment: MIC, standard agar dilution test; type: cell-based
Excerpt: as §1

[7] = system: Hemophilus influenzae C.L.; experiment: MIC, standard agar dilution test; type: cell-based
Excerpt: as §1

[8] = system: Klebsiella pneumoniae KAE; experiment: MIC, standard agar dilution test; type: cell-based
Excerpt: as §1

[9] = system: Klebsiella pneumoniae X26; experiment: MIC, standard agar dilution test; type: cell-based
Excerpt: as §1

Proteus inconstans PR33 = experiment: MIC, standard agar dilution test; type: cell-based
Excerpt: as §1

Proteus morganii PR15 = experiment: MIC, standard agar dilution test; type: cell-based
Excerpt: as §1

Proteus rettgeri C24 = experiment: MIC, standard agar dilution test; type: cell-based
Excerpt: as §1

Proteus rettgeri PR7 = experiment: MIC, standard agar dilution test; type: cell-based
Excerpt: as §1

[10] = system: Pseudomonas aeruginosa Ps18; experiment: MIC, standard agar dilution test; type: cell-based
Excerpt: as §1

[11] = system: Pseudomonas aeruginosa X239; experiment: MIC, standard agar dilution test; type: cell-based
Excerpt: as §1

[12] = system: Pseudomonas aeruginosa X528; experiment: MIC, standard agar dilution test; type: cell-based
Excerpt: as §1

[13] = system: Salmonella heidelberg X514; experiment: MIC, standard agar dilution test; type: cell-based
Excerpt: as §1

[14] = system: Salmonella typhimurium 1335; experiment: MIC, standard agar dilution test; type: cell-based
Excerpt: as §1

Serratia marcescens SE3 = experiment: MIC, standard agar dilution test; type: cell-based
Excerpt: as §1

Serratia marcescens X99 = experiment: MIC, standard agar dilution test; type: cell-based
Excerpt: as §1

Shigella sonnei N9 = experiment: MIC, standard agar dilution test; type: cell-based
Excerpt: as §1

[15] = system: Staphylococcus aureus S13E; experiment: MIC, standard agar dilution test; type: cell-based; details: Staphylococcus aureus S13E; agar dilution
Excerpt: as §1

[16] = system: Staphylococcus aureus V41; experiment: MIC, standard agar dilution test; type: cell-based
Excerpt: as §1

[17] = system: Staphylococcus aureus X1.1; experiment: MIC, standard agar dilution test; type: cell-based
Excerpt: as §1

[18] = system: Staphylococcus aureus X400; experiment: MIC, standard agar dilution test; type: cell-based
Excerpt: as §1

[19] = system: Staphylococcus epidermidis EPI1; experiment: MIC, standard agar dilution test; type: cell-based; details: Staphylococcus epidermidis EPI1; agar dilution
Excerpt: as §1

[20] = system: Staphylococcus epidermidis EPI2; experiment: MIC, standard agar dilution test; type: cell-based
Excerpt: as §1

[21] = system: Streptococcus group D 9960; experiment: MIC, standard agar dilution test; type: cell-based
Excerpt: as §1

[22] = system: Streptococcus group D X66; experiment: MIC, standard agar dilution test; type: cell-based
Excerpt: as §1

[23] = system: Streptococcus pneumoniae Park I; experiment: MIC, standard agar dilution test; type: cell-based; details: Streptococcus pneumoniae Park I; agar dilution
Excerpt: as §1

[24] = system: Streptococcus pyogenes C203; experiment: MIC, standard agar dilution test; type: cell-based
Excerpt: as §1

[25] = system: Staphylococcus aureus 3055; experiment: Subcutaneous therapy of experimental bacterial infection in mice; type: in vivo; details: subcutaneous doses at 1 and 5 hours post infection
Procedure: Table II illustrates the effective dose (ED50, effective dose to protect 50 percent of the test animals) for representative compounds of this invention against an experimental bacterial infection in mice.
The EDso values were determined as described by W. E. Wick et al., Journal of Bacteriology, 81 [No. 2], 233-235 (1961).

Row | Substance | Minimum inhibitory concentration [1] [µg/mL] | Minimum inhibitory concentration [2] [µg/mL] | Minimum inhibitory concentration [3] [µg/mL] | Minimum inhibitory concentration [4] [µg/mL] | Minimum inhibitory concentration [5] [µg/mL] | Minimum inhibitory concentration [6] [µg/mL] | Minimum inhibitory concentration (Enterobacter cloacae EB5) [µg/mL] | Minimum inhibitory concentration (Escherichia coli EC14) [µg/mL] | Minimum inhibitory concentration (Escherichia coli N10) [µg/mL] | Minimum inhibitory concentration (Escherichia coli TEM) [µg/mL] | Minimum inhibitory concentration (Hemophilus influenzae 76) [µg/mL] | Minimum inhibitory concentration [7] [µg/mL] | Minimum inhibitory concentration [8] [µg/mL] | Minimum inhibitory concentration [9] [µg/mL] | Minimum inhibitory concentration (Proteus inconstans PR33) [µg/mL] | Minimum inhibitory concentration (Proteus morganii PR15) [µg/mL] | Minimum inhibitory concentration (Proteus rettgeri C24) [µg/mL] | Minimum inhibitory concentration (Proteus rettgeri PR7) [µg/mL] | Minimum inhibitory concentration [10] [µg/mL] | Minimum inhibitory concentration [11] [µg/mL] | further results
1 | 2′-N-(RS-γ-Amino-α-hydroxybutyryl)apramycin [Test compound 2] | 128 | 32 | 16 | 32 | 16 | 64 | 32 | 32 | 16 | 8 | 32 | 32 | 32 | 8 | 32 | 128 | 16 | 16 | 128 | 128 | Minimum inhibitory concentration [12]: 128 µg/mL; Minimum inhibitory concentration [13]: 32 µg/mL; Minimum inhibitory concentration [14]: 32 µg/mL; Minimum inhibitory concentration (Serratia marcescens SE3): 32 µg/mL; Minimum inhibitory concentration (Serratia marcescens X99): 16 µg/mL; Minimum inhibitory concentration (Shigella sonnei N9): 32 µg/mL; Minimum inhibitory concentration [15]: 16 µg/mL; Minimum inhibitory concentration [16]: 32 µg/mL; Minimum inhibitory concentration [17]: 16 µg/mL; Minimum inhibitory concentration [18]: 64 µg/mL; Minimum inhibitory concentration [19]: 16 µg/mL; Minimum inhibitory concentration [20]: 8 µg/mL; Minimum inhibitory concentration [21]: >128 µg/mL; Minimum inhibitory concentration [22]: >128 µg/mL; Minimum inhibitory concentration [23]: 32 µg/mL; Minimum inhibitory concentration [24]: 32 µg/mL; Effective dose (ED50) ([25]; challenged with 331 LD50's): 21.8^2 mg/kg×2
2 | 2′-N-(S-γ-Amino-α-hydroxybutyryl)nebramine [Test compound 5] | >128 | 64 | 64 | 64 | 64 | >128 | 128 | >128 | 128 | 32 | 64 | 64 | 64 | 64 | 64 | 64 | 64 | 32 | 128 | 128 | Minimum inhibitory concentration [12]: >128 µg/mL; Minimum inhibitory concentration [13]: 128 µg/mL; Minimum inhibitory concentration [14]: 128 µg/mL; Minimum inhibitory concentration (Serratia marcescens SE3): >128 µg/mL; Minimum inhibitory concentration (Serratia marcescens X99): 128 µg/mL; Minimum inhibitory concentration (Shigella sonnei N9): 64 µg/mL; Minimum inhibitory concentration [15]: 32 µg/mL; Minimum inhibitory concentration [16]: 64 µg/mL; Minimum inhibitory concentration [17]: 32 µg/mL; Minimum inhibitory concentration [18]: 64 µg/mL; Minimum inhibitory concentration [19]: 64 µg/mL; Minimum inhibitory concentration [20]: 32 µg/mL; Minimum inhibitory concentration [21]: >128 µg/mL; Minimum inhibitory concentration [22]: >128 µg/mL; Minimum inhibitory concentration [23]: 128 µg/mL; Minimum inhibitory concentration [24]: 128 µg/mL; Effective dose (ED50) ([25]; challenged with 1794 LD50's): >70^3 mg/kg×2

Source: patent EP0048613B1, “4-0-Substituted -2-deoxystreptamine aminoglycoside derivatives, their preparation and formulations containing them” (ELI LILLY AND COMPANY, priority 1980, dated 1982)
